Source: US11946028B2, “Fibrosis model on a chip” (The Trustees of the University of Pennsylvania, priority 2015, dated 2024)

Tested on: human lung fibroblasts
Assay: Serum-induced fibrosis in biomimetic five-layer lung fibrosis model
Format: cell-based
Conditions: 2 μM PP2 added to medium 24 hours after assembly, maintained for the study; 0.2% serum in the model; FIG. 20
Text: The first and second channel slabs and the chamber slab of the model were formed using soft lithography techniques, in which the PDMS mixture was poured over the mold, and the slabs were allowed to cure. The microchannels were etched into each of the channel slabs, with the dimensions of 10 mm×1 mm×0.15 mm (length×width×height). The chamber was etched into the chamber slab, with the dimensions of 6 mm×3 mm×1 mm (length×width×height). See FIG. 9 for a picture of the five-layer model and FIG. 2A-2B for a schematic of the five-layer model.
Next, the cellular physiology of the cell-lined fluidic channels with the gel layer of the five-layer model was examined (FIG. 11). In this instance, the upper channel contained human lung endothelial cells cultured with commercially available medium from the supplying vendor of the cells. The lower channel contained small airway epithelial cells with similar specific medium, both from same vendor. The gel was created by adding collagen to physiological aqueous buffer at a concentration of 2 mg/ml and kept at 4° C. Human lung fibroblasts (100 K cells/ml) were added to the gel during the liquid phase. The side of the membranes facing the chamber slab were treated with sulfo-sanpah to promote collagen/ECM anchorage. The lower channel slab, lower membrane, and chamber slab were stacked. The gel was then pipetted into the chamber. […]

With CC(C)(C)n1nc(-c2ccc(Cl)cc2)c2c(N)ncnc21 [PP2] the “effect on serum-induced fibrosis” value was “reduced fibrosis”.
